27 molecules from US7094909B2, “HIV protease inhibitors, compositions containing the same, their pharmaceutical uses and materials for their synthesis” (priority 2001, dated 2006) can be followed below.

Where two headings read alike, the source gives them in different places.

In assay [1] the test system is HIV-1 (HIV-1 RF, HIV-1 NL4-3) in CEM-SS / MT-2 cells. Kind of assay: Cytopathic effect (CPE) inhibition assay (XTT/MTT dye reduction). The assay is classed as cell-based. The procedure, abridged:
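Readout is XTT reduction (A450, 4 h) after six days of culturing virus-infected (moi 0.025–0.819) or mock-infected CEM-SS/MT-2 cells, 2×10^4 per well, with half-log compound series. Antiviral EC50 and cytotoxic CC50 are relative to uninfected compound-free cells. Therapeutic index is CC50 divided by EC50.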

In assay [2] the target is T1, HIV-1 protease (Q7S mutant form) (Human immunodeficiency virus type 1 group M subtype B, UniProt P04585, Q495S).
T1 construct: made in house
The assay can be described thus: HIV-1 Protease RET assay. The format is biochemical. The procedure, abridged: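 Ki values fitted with the Morrison tight-binding equation from steady-state RET cleavage (ex 340, em 490 nm) of 5 μM RE(EDANS)SQNYPIVQK(DABCYL)R. Buffer pH 4.8 acetate, 1M NaCl, 5 mM DTT, 1 mg/ml BSA, 10% DMSO; 2 nM Q7S mutant dimer, 37 °C, 12 min.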

Setting [3] is: Human immunodeficiency virus 1, NL43, read-out: Ave CPE EC50.
[4] abbreviates: Ave. Ki (nM), RET assay, Q7S enzyme, Morrison tight binding fit.
[5] abbreviates: Human immunodeficiency virus 1, NL43, unit inferred, read-out: EC50.

As to `Cc1c(O)cccc1C(=O)N[C@@H](Cc1ccccc1)[C@H](O)C(=O)N1CSC(C)(C)[C@H]1C(=O)NCc1cc2ccccc2[nH]1` [Example A61, (R)-3-[(2S,3S)-2-Hydroxy-3-(3-hydroxy-2-methyl-benzoylamino)-4-phenyl-butyryl]-5,5-dimethyl-thiazolidine-4-carboxylic acid (1H-indol-2-ylmethyl)-amide], the half-maximal effective concentration (EC50) – broadly, the concentration needed to bring the measured effect to its halfway point – in assay [1] (setting [3]) worked out at 1060 nM. Also, in assay [2] (setting [4]), the inhibition constant Ki (as a rule, a dissociation constant, usually derived from enzyme kinetics or from competition with a known ligand) was determined as 0.99 nM.

As for `Cc1cccc(C)c1OCC(=O)N[C@@H](Cc1ccccc1)[C@H](O)C(=O)N1CSC(C)(C)[C@H]1C(=O)NCc1c(F)cccc1F`, in assay [1] (setting [5]), the EC50 turned out to be 1880 nM. The inhibitory constant (Ki) in assay [2] (Ki, unit inferred) was 0.32 nM.

Take `Cc1ccccc1CNC(=O)[C@H]1N(C(=O)[C@@H](O)[C@H](Cc2ccccc2)NC(=O)OC(C)(C)C)CSC1(C)C`: the concentration giving a half-maximal response (EC50) in assay [1] (setting [5]) is 1290 nM. Also, in assay [2] (Ki, unit inferred), the affinity corresponds to a Ki of 3 nM.

For `CCCNC(=O)[C@@H]1CC(F)(F)CN1C(=O)[C@@H](O)[C@H](Cc1ccccc1)NC(=O)c1cccc(O)c1C` [Example C7, 4,4-Difluoro-1-[2-hydroxy-3-(3-hydroxy-2-methyl-benzoylamino)-4-phenyl-butyryl]-pyrrolidine-2-carboxylic acid propylamide], the concentration giving a half-maximal response (EC50) in assay [1] (setting [3]) was 347 nM. The molecule further showed an inhibitory constant (Ki) in assay [2] (setting [4]) of 3 nM.

`CC(=O)C(=O)N[C@@H](Cc1ccccc1)[C@H](O)C(=O)N1CSC(C)(C)[C@H]1C(=O)NCc1ccccc1C`: the half-maximal effective concentration (EC50) in assay [1] (setting [5]) is ≥ 1000 nM. For the same molecule, in assay [2] (Ki, unit inferred), the inhibition constant Ki stood at 4.7 nM.

For `Cc1ccccc1CNC(=O)[C@H]1N(C(=O)[C@@H](O)[C@H](Cc2ccccc2)NC(=O)OCc2ccccc2)CSC1(C)C`, the EC50 in assay [1] (setting [5]) was 4220 nM. Besides, the affinity in assay [2] (Ki, unit inferred), expressed as Ki, was 1.4 nM.

For `Cc1c(O)cccc1C(=O)N[C@@H](Cc1ccccc1)[C@H](O)C(=O)N1CSC(C)(C)[C@H]1C(=O)N[C@@H]1CCc2ncccc21` [Example A52, 3-[2-Hydroxy-3-(3-hydroxy-2-methyl-benzoylamine)-4-phenyl-butyryl]-5,5-dimethyl-thiazolidine-4-carboxylic acid (6,7-dihydro-5H-[1]pyrindin-5-yl)-amide], the EC50 in assay [1] (setting [3]) turned out to be 456 nM. In assay [2] (setting [4]), this molecule gave a Ki of 0.51 nM.

With `Cc1cccc(C)c1OCC(=O)N[C@@H](Cc1ccccc1)[C@H](O)C(=O)N1CSC(C)(C)[C@H]1C(=O)NCc1ccccc1Cl`, the EC50 in assay [1] (setting [5]) stood at 1540 nM. Besides, the Ki in assay [2] (Ki, unit inferred) is ≤ 0.1 nM.

Take `Cc1ccccc1CNC(=O)[C@H]1N(C(=O)[C@@H](O)[C@H](Cc2ccccc2)NC(=O)c2cccc(O)c2C)CC(=O)C1(C)C` [Example C48, 1-[2-Hydroxy-3-(3-hydroxy-2-methyl-benzoylamino)-4-phenyl-butyryl]-3,3-dimethyl-4-oxo-pyrrolidine-2-carboxylic acid 2-methyl-benzylamide]: in assay [1] (setting [3]), the EC50 turned out to be 128 nM. The Ki in assay [2] (setting [4]) is < 0.1 nM.

Take `Cc1ccccc1CNC(=O)[C@H]1N(C(=O)[C@@H](O)[C@H](Cc2ccccc2)NC(=O)OC2CC3CCC2C3)CSC1(C)C` (stereo partly drawn): the EC50 in assay [1] (setting [5]) turned out to be 2880 nM. In assay [2] (Ki, unit inferred), this molecule had an inhibition constant Ki of 9.4 nM.

For `CCC(C)C(=O)N[C@@H](Cc1ccccc1)[C@H](O)C(=O)N1CSC(C)(C)[C@H]1C(=O)NCc1ccccc1C` (stereo partly drawn) [Example B12, (R)-3-[(2S,3S)-2-Hydroxy-3-(2-methyl-butyrylamino)-4-phenyl-butyryl]-5,5-dimethyl-thiazolidine-4-carboxylic acid 2-methyl-benzylamide], the EC50 in assay [1] (setting [3]) is > 1000 nM. Also, in assay [2] (setting [4]), the Ki came out at 9.9 nM.

As for `CC1(C)SCN(C(=O)[C@@H](O)[C@H](Cc2ccccc2)NC(=O)c2cccc3[nH]ncc23)[C@@H]1C(=O)NCc1ccco1` [Example B37, 1-H-indazole-4-carboxylic acid (1-benzyl-3-{4[(furan-2-ylmethyl)-carbamoyl]-5,5-dimethyl-thiazolidin-3-yl}-2-hydroxy-3-oxo-propyl)-amide], the EC50 in assay [1] (setting [3]) amounted to 529 nM. In assay [2] (setting [4]), this molecule showed a Ki of 7.4 nM.

`CCCOC(=O)N[C@@H](Cc1ccccc1)[C@H](O)C(=O)N1CSC(C)(C)[C@H]1C(=O)NCc1ccccc1C`: the 50% effective concentration (EC50) in assay [1] (setting [5]) is 1550 nM. Besides, in assay [2] (Ki, unit inferred), the Ki was 1.1 nM.

For `CCCNC(=O)[C@H]1N(C(=O)[C@@H](O)[C@H](Cc2ccccc2)NC(=O)c2cccc3c2CCN3)CSC1(C)C` [Example B45, 2,3-Dihydro-1H-indole-4-carboxylic acid [(1S,2S)-1-benzyl-3-((R)-5,5-dimethyl-4-propylcarbamoyl-thiazoldin-3-yl)-2-hydroxy-3-oxo-propyl]-amide], the EC50 in assay [1] (setting [3]) came to 572 nM. This molecule had an inhibition constant (Ki) in assay [2] (setting [4]) of 1.1 nM.

As for `Cc1c(O)cccc1C(=O)N[C@@H](Cc1ccccc1)[C@H](O)C(=O)N1CSC(C)(C)[C@H]1C(=O)N[C@@H]1CCCc2occc21` [Example A47, 3-[2-Hydroxy-3-(3-hydroxy-2-methyl-benzoylamino)-4-phenyl-butyryl]-5,5-dimethyl-thiazolidine-4-carboxylic acid (4,5,6,7-tetrahydro-benzofuran-4-yl)-amide], the EC50 in assay [1] (setting [3]) was determined as 196 nM. In assay [2] (setting [4]), this molecule returned a Ki of 0.27 nM.

On to `Cc1ccccc1CNC(=O)[C@H]1N(C(=O)[C@@H](O)[C@H](Cc2ccccc2)NC(=O)O[C@@H]2CCS[C@@H]2C(C)C)CSC1(C)C` [Example B5, {(1S,2S)-1-Benzyl-3-[(R)-5,5-dimethyl-4-(2-methyl-benzylcarbamoyl)-thiazolidin-3-yl]-2-hydroxy-3-oxo-propyl}-carbamic acid (R)-2-isopropyl-tetrahydro-thiophen-3-yl ester], for which the EC50 in assay [1] (setting [3]) was determined as 314 nM. This molecule also returned a Ki in assay [2] (setting [4]) of 1.2 nM.

In the case of `Cc1ccccc1CNC(=O)[C@H]1N(C(=O)[C@@H](O)[C@H](Cc2ccccc2)NC(=O)COc2c(C)cc(Cl)cc2C)CSC1(C)C`, the EC50 in assay [1] (setting [5]) stood at 1110 nM. This molecule also had an inhibitory constant (Ki) in assay [2] (Ki, unit inferred) of 0.38 nM.

For `C#CCOC(=O)N[C@@H](Cc1ccccc1)[C@H](O)C(=O)N1CSC(C)(C)[C@H]1C(=O)NCc1ccccc1C(F)(F)F` [Example B54, {1-Benzyl-3-[5,5-dimethyl-4-(2-trifluoromethyl-benzylcarbamoyl)-thiazolidin-3-yl]-2-hydroxy-3-oxo-propyl}-carbamic acid prop-2-ynyl ester], in assay [1] (setting [3]), the EC50 is 1660 nM. The molecule further had an inhibitory constant (Ki) in assay [2] (setting [4]) of 2.3 nM.

For the molecule `CC1(C)SCN(C(=O)[C@@H](O)[C@H](Cc2ccccc2)NC(=O)O[C@H]2CCOC2)[C@@H]1C(=O)NCC1CC1` [Example B26, {(1S,2S)-1-Benzyl-3-[(R)-4-(cyclopropylmethyl-carbamoyl)-5,5-dimethyl-thiazolidin-3-yl]-2-hydroxy-3-oxo-propyl}-carbamic acid (S)-(tetrahydro-furan-3-yl) ester], in assay [1] (setting [3]), the concentration for a half-maximal effect (EC50) was 348 nM. In assay [2] (setting [4]), this molecule gave a Ki of 2.1 nM.

`Cc1c(O)cccc1C(=O)N[C@@H](Cc1ccccc1)[C@H](O)C(=O)N1CSC(C)(C)[C@H]1C(=O)N1CCc2ccccc2C1`: the concentration giving a half-maximal response (EC50) in assay [1] (setting [5]) stood at 1180 nM. This molecule also returned an inhibition constant Ki in assay [2] (Ki, unit inferred) of 9 nM.

Turning to `Cc1c(O)cccc1C(=O)N[C@@H](Cc1ccccc1)[C@H](O)C(=O)N1CSC(C)(C)[C@H]1C(=O)N[C@H]1CC1c1ccccc1` (stereo partly drawn), in assay [1] (setting [5]), the EC50 is 1330 nM. In addition, the Ki in assay [2] (Ki, unit inferred) was 17.2 nM.

Take `Cc1c(F)cccc1C(=O)N[C@@H](Cc1ccccc1)[C@H](O)C(=O)N1CSC(C)(C)[C@H]1C(=O)N[C@H]1CCc2ccccc21` [Example B82, (R)-3-((2S,3S)-3-{[1-(3-Fluoro-2-methyl-phenyl)-methanoyl]-amino}-2-hydroxy-4-phenyl-butanoyl)-5,5-dimethyl-thiazolidine-4-carboxylic acid (S)-indan-1-ylamide]: the EC50 in assay [1] (setting [3]) was 1290 nM. In assay [2] (setting [4]), this molecule gave an inhibitory constant (Ki) of 0.19 nM.

Turning to `Cc1ccccc1CNC(=O)C1N(C(=O)[C@@H](O)[C@H](Cc2ccccc2)NC(=O)CSc2nccs2)CSC1(C)C` (stereo partly drawn), the EC50 in assay [1] (setting [5]) is 1550 nM. The molecule further yielded a Ki in assay [2] (Ki, unit inferred) of 6.9 nM.

`Cc1c(O)cccc1C(=O)N[C@@H](Cc1ccccc1)[C@H](O)C(=O)N1CSC(C)(C)[C@H]1C(=O)NC1CC1` [Example A25, (R)-3-((2S,3S)-2-Hydroxy-3-{[1-(3-hydroxy-2-methyl-phenyl)-methanoyl]-amino}-4-phenyl-butanoyl)-5,5-dimethyl-thiazolidine-4-carboxylic acid cyclopropylamide]: the EC50 in assay [1] (setting [3]) is 125 nM. This molecule also showed a Ki in assay [2] (setting [4]) of 0.97 nM.

Turning to `Cc1c(O)cccc1C(=O)N[C@@H](Cc1ccccc1)[C@H](O)C(=O)N1CSC(C)(C)[C@H]1C(=O)N1CCCCC1` [Example A34, N-{(1S,2S)-1-Benzyl-3-[(R)-5,5-dimethyl-4-(1-piperidin-1-yl-methanoyl)-thiazolidin-3-yl]-2-hydroxy-3-oxo-propyl}-3-hydroxy-2-methyl-benzamide], the EC50 in assay [1] (setting [3]) stood at 386 nM. Besides, the affinity in assay [2] (setting [4]), expressed as Ki, was 1.4 nM.

Regarding `C#CCNC(=O)[C@H]1N(C(=O)[C@@H](O)[C@H](Cc2ccccc2)NC(=O)c2cccc3c2CCN3)CSC1(C)C` [Example B34, 2,3-Dihydro-1H-indole-4-carboxylic acid [(1S,2S)-1-benzyl-3-((R)-5,5-dimethyl-4-prop-2-ynylcarbamoyl-thiazoldin-3-yl)-2-hydroxy-3-oxo-propyl]-amide], the EC50 in assay [1] (setting [3]) is 389 nM. The molecule further registered an inhibitory constant (Ki) in assay [2] (setting [4]) of 1.2 nM.

Consider `Cc1c(O)cccc1C(=O)N[C@@H](Cc1ccccc1)[C@H](O)C(=O)N1CSC(C)(C)[C@H]1C(=O)NC1CCCCCC1` [Example A31, (R)-3-((2S,3S)-2-Hydroxy-3-{[1-(3-hydroxy-2-methyl-phenyl)-methanoyl]-amino}-4-phenyl-butanoyl)-5,5-dimethyl-thiazolidine-4-carboxylic acid cycloheptylamide], for which, in assay [1] (setting [3]), the EC50 came to 62 nM. In assay [2] (setting [4]), this molecule yielded a Ki of 0.44 nM.
